Data set [1] deals with human Factor 7 mRNA. Put plainly: Dose-dependent antisense inhibition of human Factor 7 in HepB3 cells, electroporation. The format is cell-based. In outline: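 HepB3 cells, 20,000/well, electroporated with gapmers at 3.125–100 μM; about 16 h treatment. Factor 7 mRNA by qRT-PCR with primer probe set RTS 2927, normalized to RIBOGREEN total RNA; percent inhibition versus untreated cells.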

The subject of the next data set is BALB/c mice. Put plainly: Tail bleeding assay. In kind it is in vivo, mouse. As to conditions: mouse, in vivo. On the procedure:
Mice not receiving treatment with FeCl3 solution were evaluated in a tail bleeding chamber. Mice were placed into the bleeding chamber two days after the final treatment of ISIS 403102 or PBS. Mice were anesthetized in the chamber with isofluorane and a small piece of tail (approximately 4 mm from the tip) was cut with sterile scissors. The cut tail was immediately placed in a 15 mL Falcon tube filled with approximately 10 mL of 0.9% NaCl buffer solution warmed to 37° C. The blood was collected over the course of 40 minutes. The saline filled tubes were weighed both before and after bleeding.
Tail-bleeding was measured to observe whether treatment with ISIS 403102 or warfarin causes internal hemorrhage in mice. ISIS 403102 and warfarin (Coumadin®) were evaluated in the tail bleeding assay. Six groups of BALB/c mice were treated with 1.25 mg/kg, 2.5 mg/kg, 5 mg/kg, 10 mg/kg, 20 mg/kg, or 40 mg/kg of ISIS 403102, administered subcutaneously twice a week for 3 weeks. An additional 6 groups of BALB/c mice were treated with 0.5 mg/kg, 1 mg/kg, 2 mg/kg, 3 mg/kg, 4 mg/kg, and 5 mg/kg of warfarin, administered intraperioneally daily for 6 days. A separate control group of BALB/c mice was treated with PBS, administered subcutaneously twice a week for 3 weeks.
Two days after the final treatment of ISIS 403102, warfarin, or PBS, mice were placed in a tail bleeding chamber. Mice were anesthetized in the chamber with isofluorane and a small piece of tail (approximately 4 mm from the tip) was cut with sterile scissors. The cut tail was immediately placed in a 15 mL Falcon tube filled with approximately 10 mL of 0.9% NaCl buffer solution warmed to 37° C. The blood was collected over the course of 40 minutes. The saline filled tubes were weighed both before and after bleeding.
ISIS 403102 and Apixaban were evaluated in BALB/c mice. In a first group of BALB/c mice, 40 mg/kg of ISIS 403102 was administered subcutaneously twice a week for 3 weeks. An additional 3 groups of BALB/c mice were treated with 5 mg/kg and 10 mg/kg of Apixaban, administered in a single intraperitoneal dose, and 10 mg/kg of Apixaban administered as a single subcutaneous dose. A control group of BALB/c mice was treated with PBS, administered subcutaneously twice a week for 3 weeks.
Two days after the final treatment of ISIS 403102 or PBS, mice were placed in a tail bleeding chamber. Mice from the groups treated with Apixaban were analyzed 30 minutes after the single dose. Mice were anesthetized in the chamber with isofluorane and a small piece of tail (approximately 4 mm from the tip) was cut with sterile scissors. The cut tail was immediately placed in a 15 mL Falcon tube filled with approximately 10 mL of 0.9% NaCl buffer solution warmed to 37° C. The blood was collected over the course of 40 minutes. The saline filled tubes were weighed before and after bleeding.

The next data set has as its system platelet factor-4 (PF-4). Put plainly: Thrombus formation by real-time RT-PCR quantification of PF-4 in the FeCl3 induced venous thrombosis model. The format is in vivo, mouse. As to conditions: Example 16, BALB/c mice, vena cava. (Real-time PCR tracks product formation cycle by cycle.)
Data set [2] deals with human Factor 7 mRNA. The data set can be described thus: Antisense inhibition of human Factor 7 with short (14-mer) oligonucleotides in HepB3 cells, electroporation 1,000 nM. In kind it is cell-based. As to conditions: electroporation, 1,000 nM antisense oligonucleotide, approximately 24 hours, Factor 7 mRNA relative to untreated control cells. In outline:
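14-mer 2-10-2 MOE gapmers (full phosphorothioate, 5-methyl-C) electroporated at 1,000 nM into HepB3 cells at 20,000 cells/well. After ~24 h, Factor 7 mRNA by real-time RT-PCR, normalized to RiboGreen total RNA. Reported as % inhibition relative to untreated cells.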

Where [3] appears, read: 3.125 μM, approx. 16 hours (Table 15, Example 7).
Setting [4] is: 3.125 μM, approx. 16 hours (Table 16, Example 8 confirmation).
Setting [5] is: 6.25 μM, approx. 16 hours (Table 15, Example 7).
Setting [6] is: 6.25 μM, approx. 16 hours (Table 16, Example 8 confirmation).
The mark [7] stands for this setting: 12.5 μM, approx. 16 hours (Table 15, Example 7).
Where [8] appears, read: 12.5 μM, approx. 16 hours (Table 16, Example 8 confirmation).
[9] abbreviates: 25 μM, approx. 16 hours (Table 15, Example 7).
[10] abbreviates: 25 μM, approx. 16 hours (Table 16, Example 8 confirmation).
Where [11] appears, read: 50 μM, approx. 16 hours (Table 15, Example 7).
Setting [12] is: 50 μM, approx. 16 hours (Table 16, Example 8 confirmation).
The mark [13] stands for this setting: 100 μM, approx. 16 hours (Table 15, Example 7).
Where [14] appears, read: 100 μM, approx. 16 hours (Table 16, Example 8 confirmation).

Strand notation (5' to 3'): a small letter for the sugar, then the base; units joined by * are phosphorothioate-linked, units joined directly phosphodiester-linked; [ ] holds rarer units or linkages, { } end groups; capitals alone tell only the bases. e = 2'-O-(2-methoxyethyl) (MOE); [5mC] = 5-methylcytosine; d = 2'-deoxy (DNA)

In general, % Inhibition refers to the percentage by which the read-out fell short of the control.

Regarding “407935 (antisense eA*eT*eG*e[5mC]*eA*dT*dG*dG*dT*dG*dA*dT*dG*d[5mC]*dT*eT*e[5mC]*eT*eG*eA) [compound 407935]”, the “percent inhibition of Factor 7 mRNA, relative to untreated control cells” value amounted to 37% in the data set on human Factor 7 mRNA [1] (setting [3]); 63% with human Factor 7 mRNA [1] (setting [4]); 47% in the data set with human Factor 7 mRNA [1] (setting [5]); 79% in the data set with human Factor 7 mRNA [1] (setting [6]); 67% in the data set with human Factor 7 mRNA [1] (setting [7]); 84% with human Factor 7 mRNA [1] (setting [8]). For the same substance, the “percent inhibition of Factor 7 mRNA, relative to untreated control cells” value is listed as 73% with human Factor 7 mRNA [1] (setting [9]); 90% in the data set on human Factor 7 mRNA [1] (setting [10]); 80% in the data set with human Factor 7 mRNA [1] (setting [11]); 90% in the data set with human Factor 7 mRNA [1] (setting [12]); 87% in the data set on human Factor 7 mRNA [1] (setting [13]); 91% in the data set with human Factor 7 mRNA [1] (setting [14]).
With “CCATAGAACAGCTTCACAGG (sugars from the 5' end e5 d10 e5, backbone and methylation of C not given here) [ISIS 403102]”, in the data set with BALB/c mice, the “amount of bleeding in comparison to PBS treated mice” value is listed as “slight decrease in the amount of bleeding” and the “bleeding as compared to PBS control mice” value was “did not significantly affect bleeding”. Also, the “amount of bleeding in comparison to PBS treated mice” value in the data set with BALB/c mice (50 mg/kg) is on record as “Bleeding was the same”. In the data set with BALB/c mice (sc, 40 mg/kg), the “Blood (g), tail bleeding” value is 0.10 g and the “bleeding compared to PBS treated mice” value is reported as “less bleeding than PBS treated mice”. Further, the “PF-4 (percentage of PF-4 as compared to the PBS-treated control groups)” value in the data set on platelet factor-4 (PF-4) (1 mg/kg s.c. twice a week for 3 weeks) is recorded as 120%. Also, the “PF-4 (percentage of PF-4 as compared to the PBS-treated control groups)” value in the data set with platelet factor-4 (PF-4) (3 mg/kg s.c. twice a week for 3 weeks) came out at 112%.
For the substance “407939 (antisense eT*eG*e[5mC]*eA*eG*d[5mC]*d[5mC]*d[5mC]*dG*dG*d[5mC]*dA*d[5mC]*d[5mC]*d[5mC]*eA*eG*e[5mC]*eG*eA) [compound 407939]”, the “% Inhibition” value in the data set with human Factor 7 mRNA [2] came out at 81%. For the same substance, the “percent inhibition of Factor 7 mRNA, relative to untreated control cells” value with human Factor 7 mRNA [1] (setting [3]) was 18%; in the data set with human Factor 7 mRNA [1] (setting [4]) it was 35%; in the data set with human Factor 7 mRNA [1] (setting [5]), 28%; with human Factor 7 mRNA [1] (setting [6]), 60%; in the data set on human Factor 7 mRNA [1] (setting [7]), 42%; with human Factor 7 mRNA [1] (setting [8]) it was 60%. Further, the “percent inhibition of Factor 7 mRNA, relative to untreated control cells” value with human Factor 7 mRNA [1] (setting [9]) worked out at 56%; with human Factor 7 mRNA [1] (setting [10]), 73%; with human Factor 7 mRNA [1] (setting [11]), 68%; with human Factor 7 mRNA [1] (setting [12]), 81%; in the data set on human Factor 7 mRNA [1] (setting [13]), 82%; in the data set on human Factor 7 mRNA [1] (setting [14]) it was 83%.
